Where two headings read alike, the source gives them in different places.
Assays:
clinical = assay: clinical; set-up: species or system human; details: in vivo
Excerpt: A multiple-dose, open-label, dose-escalation study was designed in which 12 healthy male subjects were scheduled to receive 1 of 2 treatments once daily for 3 days with an 11-day washout period between doses.
The objective of this Phase 1 study was to assess the safety and pharmacokinetic (PK) profile of multiple dose administration of 0.25 g and 1.00 g of a 0.07% transdermal estradiol gel in healthy male volunteers. The transdermal gel used had the following formulation: […]
Twelve (12) healthy subjects were enrolled and participated in two open-label treatment periods. Subjects who successfully completed the screening process checked into the research center on Day 1, approximately 1 to 2 hours prior to the first blood draw of each treatment period. For Treatment Period A, 0.25 g of the 0.07% gel was to be administered once daily for three days. During Treatment Period B, 1.0 g of the 0.07% gel was to be administered once daily for three days. Dosing days were to be separated by a washout period of at least 11 days.
Diagnosis and Main Criteria for Inclusion: Healthy adult male volunteers, 18-45 years of age, with body mass index (BMI) between 18 and 30 kg/m2, inclusive, and minimum weight of 50 kg (110 pounds).

[1] = Solubility of ethyl oleate as a function of ethanol concentration; assay type: physicochemical; details: for Amount of Ethyl Oleate solubilised in g/100 g: room temperature, 0.24% estradiol, 5% propylene glycol, 2% oleic acid, Qsf water
Excerpt: In particular, it appears that the more ester is present in the composition, the better the storage depot effect is. […] An upper limit is imposed, however, by the solubility of the fatty acid ester in the composition.

C[C@]12CC[C@@H]3c4ccc(O)cc4CC[C@H]3[C@@H]1CC[C@@H]2O [Estradiol, estradiol]
dose proportionality of exposure (clinical): less than proportional increase in exposure
AUC0-24 (clinical; male, human): 0.7522 ng·h/mL
AUC0-120 (clinical; male, human): 2.933 ng·h/mL
AUC24-48 (clinical; male, human): 0.661 ng·h/mL
AUC48-72 (clinical; male, human): 0.6581 ng·h/mL
AUC(0-t) (clinical; male, human): 4.436 ng·h/mL
Cmax-overall (clinical; male, human): 0.0646 ng/mL
increase in overall systemic exposure based on AUC0-120 (clinical; male, human): 1.26 fold
increase in peak systemic exposure based on Cmax0-120 (clinical; male, human): 1.95 fold
increase of estradiol concentrations above baseline (clinical; male, human): 2- to 3 fold
ratio (0.25 g: 1.00 g) for estradiol AUC0-120 (clinical; male, human): 80.01%
ratio (0.25 g: 1.00 g) for estradiol Cmax0-120 (clinical; male, human): 47.89%
Tmax (clinical; male, human, 0.25 g of 0.07% estradiol gel (Example 10) once daily for 3 days, healthy males, Mean, N 12, read-out: Tmax-overall): 54.8 h
Tmax (clinical; male, human, 0.25 g, first dosing interval, read-out: Estradiol Tmax after administration of the gel): ~13 h
Tmax (clinical; male, human, 0.25 g, third dosing interval, read-out: Estradiol Tmax after administration of the gel): ~3 h
Tmax (clinical; male, human, 1.00 g of 0.07% estradiol gel (Example 10) once daily for 3 days, healthy males, Mean, n 11, read-out: Tmax-overall): 29.8 h
AUC(0-t) (clinical; male, human, AUC0-24 (hr * pg/mL)): 0.477 ng·h/mL
AUC(0-t) (clinical; male, human, AUC0-120 (hr * pg/mL)): 2.33 ng·h/mL
AUC(0-t) (clinical; male, human, AUC0-t (hr * pg/mL)): 3.78 ng·h/mL
AUC (clinical; male, human, AUC24-48 (hr * pg/mL)): 0.503 ng·h/mL
AUC (clinical; male, human, AUC48-72 (hr * pg/mL)): 0.477 ng·h/mL
Cmax (clinical; male, human, Cmax-overall (pg/mL)): 0.0331 ng/mL

CCCCCCCC/C=C\CCCCCCCC(=O)OCC [Ethyl Oleate, ethyl oleate]
Amount of Ethyl Oleate solubilised in g/100 g ([1]; EtOH (96% v/v) 64%): 0.65 g/100 g
Amount of Ethyl Oleate solubilised in g/100 g ([1]; EtOH (96% v/v) 66%): 0.91 g/100 g
Amount of Ethyl Oleate solubilised in g/100 g ([1]; EtOH (96% v/v) 68%): 1.28 g/100 g
Amount of Ethyl Oleate solubilised in g/100 g ([1]; EtOH (96% v/v) 70%): 1.60 g/100 g
Amount of Ethyl Oleate solubilised in g/100 g ([1]; EtOH (96% v/v) 72%): 2.19 g/100 g
Amount of Ethyl Oleate solubilised in g/100 g ([1]; EtOH (96% v/v) 73%): 2.40 g/100 g
maximum ethyl oleate that can be dissolved ([1]; formulation comprising 72% ethanol): ≤ 2.2%
